Source: PMC5797143, “Epigenetic modulation of inflammation and synaptic plasticity promotes resilience against stress in mice” (Nature Communications, 2018)
Where two headings read alike, the source gives them in different places.

Tests used:
HepG2 cells = experiment: Cytotoxicity by high content screening (HCS); type: cell-based
Description: (§1) Based on the efficacy of DHCA/Mal-gluc in treating stress-induced depression, we initiated an in vitro toxicity and drug-like properties studies to investigate the potential of developing these two phytochemicals as novel therapies. […] At low concentrations, DHCA and Mal-gluc had no detectable effects on cell number, nuclear size, DNA structure, cell membrane permeability, mitochondrial mass, mitochondrial membrane potential or cytochrome C release in high content screening (HCS)[41] using HepG2 cells (Table 1). At high concentrations, Mal-gluc reduced cell number, increased nuclear size, […], and increased mitochondrial mass, with calculated EC50s beyond physiological concentration (Table 1).
(§2) MTT and LDH release assays were conducted in MSN-enriched primary neurons and in PBMCs[64]. Cellular cytotoxicity was conducted in HepG2 cells using high content screening (HCS) protocols. Briefly, HepG2 cells were plated on 384-well tissue culture treated black walled clear bottomed polystyrene plates and treated with varying concentrations of Mal-gluc or DHCA. The cells were loaded with the relevant dye/antibody for each cell-health marker following incubation, including cell count, markers for nuclear size, DNA structure, cell membrane permeability, mitochondrial mass, mitochondrial membrane potential and cytochrome C release. The plates were then scanned using an automated fluorescent cellular imager ArrayScanr (Thermo Scientific Cellomics).

[1] = system: Rac1 promoter histone H3 acetylation / H3K27 trimethylation; experiment: Quantitative ChIP along the Rac1 promoter in MSN-enriched primary cultures; type: cell-based, mouse
Description: Stress-induced reduction of Rac1 expression is associated with a repressed chromatin state surrounding the promoter region of Rac1 in the NAc[11]. Since Mal-gluc can cross the BBB, we hypothesized that Mal-gluc may promote Rac1 expression, in part, by modulating chromatin acetylation. We first assessed the effect of Mal-gluc on HDACs that play key roles in chromatin deacetylation. […] Using site directed quantitative chromatin immunoprecipitation (qCHIP), we examined the permissive histone H3 acetylation (AcH3) in Mal-gluc treated MSN-enriched primary cultures.
Site-directed qChIP was performed for pan-acH3 and H3K27me3 as described previously with modification. Neurons were washed once with PBS and crosslinked in 1% formaldehyde for 15 min, quenched by glycine at a final concentration of 125 mM. Neurons were then rinsed with cold PBS containing protease inhibitor cocktail (Sigma) and scraped off the plate. Cells were resuspended and sonicated with a Bioruptor (15 cycles, 30 sec on/off), which produces chromatin fragments ~350 bp in length. […] Levels of specific histone modifications along the Rac1 promoter were determined by measuring the amount of acetylated or methylated histone-associated DNA using quantitative real-time PCR as previously described.

IL-6 = experiment: In vivo dose finding: plasma IL-6 after LPS challenge; set-up: species or system mouse; settings: 50 µg to 50 mg/kg-BW/day in drinking water, 2 weeks; LPS 0.4 mg/kg-BW i.p.; 5 and 50 mg/kg most significant
Description: We then initiated dose response and safety studies in mice to determine testing dosages and safety of DHCA and Mal-gluc. C57BL/6 mice were treated with either DHCA (doses ranging from 50 µg to 50 mg/kg-BW/day) or Mal-gluc (doses ranging from 50 ng to 5 mg/kg-BW/day) for 2 weeks to simulate long-term administration. Mice treated with DHCA were challenged with intraperitoneal (i.p.) injection of 0.4 mg/kg-BW LPS and plasma levels of IL-6 were measured 6 h post injection. […] Following common discovery-stage practices, we measured the plasma levels of alkaline phosphatase (ALP), aspartate aminotransferase (AST), and alanine aminotransferase (ALT) for liver function and blood urea nitrogen (BUN) for renal function.
Male C57BL/6 J mice (8-week-old) were placed on a polyphenol-free AIN-93M diet and treated with various doses of DHCA (vehicle, 50 µg, 500 µg, 5 mg, and 50 mg/kg-BW/day), delivered through their drinking water for two weeks. Animals were then sacrificed and plasma was collected for routine biochemistry panel analysis including ALP, ALT, and AST for liver function and blood urea nitrogen (BUN) content for kidney function. A separate group of mice was similarly treated and challenged with an i.p. injection of 0.4 mg/kg body weight LPS and plasma was collected 6 h post injection for IL-6 analysis. […]

[2] = Cytotoxicity by high content screening (HCS); type: cell-based; settings: human, HepG2 cells
Description: as §1, §2

[3] = DHCA ↑ (NS, fit not statistically significant), NR = No response observed, read-out: Cytotoxicity by HCS (AC50), Mitochondrial membrane potential
[4] = DHCA ↑, NR = No response observed, read-out: Cytotoxicity by HCS (AC50), Cytochrome C release
[5] = Malvidin-gluc ↑, NR = No response observed, read-out: Cytotoxicity by HCS (AC50), Mitochondrial mass
[6] = Malvidin-gluc ↑, NR = No response observed, read-out: Cytotoxicity by HCS (AC50), Nuclear size
[7] = Malvidin-gluc ↓, NR = No response observed, read-out: Cytotoxicity by HCS (AC50), Cell number
[8] = NR = No response observed, read-out: Cytotoxicity by HCS (AC50), DNA structure
[9] = both ↓, read-out: Cytotoxicity by HCS (AC50), Cell membrane permeability

SMILES | AC50 (HepG2 cells; [3]) [µM] | AC50 (HepG2 cells; [4]) [µM] | AC50 (HepG2 cells; [5]) [µM] | AC50 (HepG2 cells; [6]) [µM] | AC50 (HepG2 cells; [7]) [µM] | AC50 (HepG2 cells; [8]) [µM] | AC50 (HepG2 cells; [9]) [µM] | repressive trimethylation of the Rac1 promoter (H3K27) [1] | permissive histone H3 acetylation (AcH3) of Rac1 ([1]; compared to vehicle, across the region surveyed) | plasma IL-6 6 h post LPS injection (IL-6) | AC50 [2, 3] [µM] | AC50 [2, 4] [µM] | AC50 [2, 5] [µM] | AC50 [2, 6] [µM] | AC50 [2, 7] [µM] | AC50 [2, 8] [µM] | AC50 [2, 9] [µM]
COc1cc(-c2[o+]c3cc(O)cc(O)c3cc2O[C@@H]2O[C@H](CO)[C@@H](O)[C@H](O)[C@H]2O)cc(OC)c1O [Mal-gluc] | > 200 | > 200 | 176 | 88.4 | 176 | > 200 | 52.7 | no effect on the repressive trimethylation | significantly increased permissive acetylation |  |  |  |  |  |  |  | 
O=C(O)CCc1ccc(O)c(O)c1 [DHCA, 3(3,4-dihydroxy-phenyl) propionic acid] |  |  |  |  |  |  |  |  |  | dose-dependent suppression of IL-6 | > 200 | > 200 | > 200 | > 200 | > 200 | > 200 | 56.6
